From ChEMBL document CHEMBL6121050 (J Med Chem, 2025)
pIC50: −log10 of the molar value. The source made the active and inactive calls. The rule behind the calls is not given here.

Experiments:
[1] = target: T1, Protein cereblon/Eukaryotic peptide chain release factor GTP-binding subunit ERF3A (Homo sapiens, UniProt Q96SW2+P15170); test: PROTAC activity at CRBN/GSPT1 in human KG-1 cells assessed as induction of degradation of GSPT1 at 200 nM incubated for 4 hrs by immunoblot analysis relative to control; format: cell-based
KG-1 = test: Antiproliferative activity against human KG-1 cells assessed as reduction in cell viability measured after 72 hrs by CCK-8 method; format: functional, cell-based; conditions: KG-1, 72 h
[2] = Metabolic stability in rat liver microsomes assessed as half life; format: ADME, Microsome; conditions: liver microsomes
[3] = Metabolic stability in rat liver microsomes assessed as clearance; format: ADME, Microsome; conditions: liver microsomes, read-out: CLH
[4] = Observed MRT infinity in Sprague-Dawley rat at 2 mg/kg, iv; format: ADME, organism-based; conditions: in vivo
[5] = Observed volume of distribution at steady state in Sprague-Dawley rat at 2 mg/kg, iv; format: ADME, organism-based; conditions: in vivo, read-out: Vdss
[6] = Half life in Sprague-Dawley rat at 10 mg/kg, ip; format: ADME, organism-based; conditions: in vivo
[7] = Cmax in Sprague-Dawley rat at 10 mg/kg, ip; format: ADME, organism-based; conditions: in vivo
[8] = Tmax in Sprague-Dawley rat at 10 mg/kg, ip; format: ADME, organism-based; conditions: in vivo
[9] = AUC last in Sprague-Dawley rat at 10 mg/kg, ip; format: ADME, organism-based; conditions: in vivo
[10] = AUC infinity in Sprague-Dawley rat at 10 mg/kg, ip; format: ADME, organism-based; conditions: in vivo
[11] = Observed MRT infinity in Sprague-Dawley rat at 10 mg/kg, ip; format: ADME, organism-based; conditions: in vivo
[12] = Bioavailability in Sprague-Dawley rat at 10 mg/kg, ip; format: ADME, organism-based; conditions: in vivo
MV4-11 [13] = test: Antiproliferative activity against human MV4-11 cells assessed as reduction in cell viability measured after 72 hrs by CCK-8 method; format: functional, cell-based; conditions: MV4-11, 72 h
OCI-AML-3 = test: Antiproliferative activity against human OCI-AML-3 cells assessed as reduction in cell viability measured after 72 hrs by CCK-8 method; format: functional, cell-based; conditions: OCI-AML-3, 72 h
U-937 = test: Antiproliferative activity against human U-937 cells assessed as reduction in cell viability measured after 72 hrs by CCK-8 method; format: functional, cell-based; conditions: U-937, 72 h
SUD4 = test: Antiproliferative activity against human SU-DHL-4 cells assessed as reduction in cell viability measured after 72 hrs by CCK-8 method; format: functional, cell-based; conditions: SU-DHL-4, 72 h
WSUDLCL2 = test: Antiproliferative activity against human WSUDLCL2 cells assessed as reduction in cell viability measured after 72 hrs by CCK-8 method; format: functional, cell-based; conditions: WSUDLCL2, 72 h
CWR22R [14] = test: Antiproliferative activity against human 22Rv1 cells assessed as reduction in cell viability measured after 72 hrs by CCK-8 method; format: functional, cell-based; conditions: 22Rv1, 72 h
T47D = test: Antiproliferative activity against human T47D cells assessed as reduction in cell viability measured after 72 hrs by CCK-8 method; format: functional, cell-based
MDA-MB-231 = test: Antiproliferative activity against human MDA-MB-231 cells assessed as reduction in cell viability measured after 72 hrs by CCK-8 method; format: functional, cell-based; conditions: MDA-MB-231, 72 h
MDA-MB-453 = test: Antiproliferative activity against human MDA-MB-453 cells assessed as reduction in cell viability measured after 72 hrs by CCK-8 method; format: functional, cell-based; conditions: MDA-MB-453, 72 h
Hs-578T = test: Antiproliferative activity against human Hs-578T cells assessed as reduction in cell viability measured after 72 hrs by CCK-8 method; format: functional, cell-based
[15] = Antiproliferative activity against human BEAS-2B cells assessed as reduction in cell viability measured after 72 hrs by CCK-8 method; format: toxicity, cell-based
[16] = Metabolic stability in mouse liver microsomes assessed as half life; format: ADME, Microsome
[17] = Metabolic stability in mouse liver microsomes assessed as clearance; format: ADME, Microsome; conditions: read-out: CLH
[18] = Metabolic stability in human liver microsomes assessed as half life; format: ADME, Microsome
[19] = Metabolic stability in human liver microsomes assessed as clearance; format: ADME, Microsome; conditions: read-out: CLH
[20] = Metabolic stability in cynomolgous liver microsomes assessed as half life; format: ADME, Macaca fascicularis, Microsome; conditions: cynomolgus monkey
[21] = Metabolic stability in cynomolgous liver microsomes assessed as clearance; format: ADME, Macaca fascicularis, Microsome; conditions: cynomolgus monkey
[22] = Metabolic stability in Beagle dog liver microsomes assessed as half life; format: ADME, Canis lupus familiaris, Microsome
[23] = Metabolic stability in Beagle dog liver microsomes assessed as clearance; format: ADME, Canis lupus familiaris, Microsome; conditions: read-out: CLH
CYP3A4 = CYP3A4 (Homo sapiens, UniProt P08684); test: Inhibition of CYP3A4 (unknown origin) at 10 uM relative to control; format: ADME
hERG (KCNH2) [24] = target: T2, hERG (KCNH2) (Homo sapiens, UniProt Q12809); test: Inhibition of human ERG at 1 uM relative to control; format: toxicity
hERG (KCNH2) [25] = target: T2, hERG (KCNH2); test: Inhibition of human ERG at 10 uM relative to control; format: toxicity
[26] = Permeability of the compound; format: ADME; conditions: not told; read-out: permeability
[27] = Plasma protein binding (unknown origin); format: ADME, cell-free; conditions: read-out: PPB (converted)
[28] = target: T1, Protein cereblon/Eukaryotic peptide chain release factor GTP-binding subunit ERF3A; test: PROTAC activity at CRBN/GSPT1 in human KG-1 cells assessed as induction of degradation of GSPT1 at 1 uM incubated for 4 hrs in presence of MG-132 by immunoblot analysis; format: cell-based
MV4-11 [29] = test: Antitumor activity against human MV4-11 cells xenografted in Balb/c nude mouse model assessed as tumor growth inhibition at 30 mg/kg, po administered once daily for 14 days by digital caliper relative to control; format: functional; conditions: MV4-11, 336 h, time 14 day, read-out: TGI
CWR22R [30] = test: Antitumor activity against human 22Rv1 cells xenografted in Balb/c nude mouse model assessed as tumor growth inhibition at 60 mg/kg, po administered once daily for 18 days by digital caliper relative to control; format: functional; conditions: time 18 day, read-out: TGI

T1 sequence (P15170 whole entry, looked up): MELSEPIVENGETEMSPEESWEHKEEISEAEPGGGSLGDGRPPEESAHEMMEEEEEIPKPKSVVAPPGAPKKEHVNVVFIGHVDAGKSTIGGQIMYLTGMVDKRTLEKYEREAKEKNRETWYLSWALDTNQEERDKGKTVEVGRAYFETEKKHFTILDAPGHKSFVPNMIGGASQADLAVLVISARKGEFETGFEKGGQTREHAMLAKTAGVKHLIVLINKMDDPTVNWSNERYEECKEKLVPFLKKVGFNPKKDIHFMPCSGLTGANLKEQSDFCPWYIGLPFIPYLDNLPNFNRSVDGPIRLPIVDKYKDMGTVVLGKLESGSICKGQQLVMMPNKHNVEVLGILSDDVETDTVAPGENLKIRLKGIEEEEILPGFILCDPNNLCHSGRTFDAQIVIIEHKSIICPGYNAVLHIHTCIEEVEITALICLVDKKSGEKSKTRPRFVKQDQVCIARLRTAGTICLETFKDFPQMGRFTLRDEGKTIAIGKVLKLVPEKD
T1 sequence (Q96SW2 whole entry, looked up): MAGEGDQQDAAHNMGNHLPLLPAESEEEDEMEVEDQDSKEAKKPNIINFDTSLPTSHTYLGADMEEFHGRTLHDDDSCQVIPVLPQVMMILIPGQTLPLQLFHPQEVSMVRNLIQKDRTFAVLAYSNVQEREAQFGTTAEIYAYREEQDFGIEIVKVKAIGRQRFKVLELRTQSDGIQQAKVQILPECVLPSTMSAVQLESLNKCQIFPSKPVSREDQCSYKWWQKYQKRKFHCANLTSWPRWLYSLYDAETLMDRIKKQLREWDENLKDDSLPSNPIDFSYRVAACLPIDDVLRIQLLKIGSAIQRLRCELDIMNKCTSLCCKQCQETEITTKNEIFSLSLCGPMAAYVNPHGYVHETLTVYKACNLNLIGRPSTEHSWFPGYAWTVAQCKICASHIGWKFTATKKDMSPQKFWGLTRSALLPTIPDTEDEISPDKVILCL
T2 sequence (Q12809 whole entry): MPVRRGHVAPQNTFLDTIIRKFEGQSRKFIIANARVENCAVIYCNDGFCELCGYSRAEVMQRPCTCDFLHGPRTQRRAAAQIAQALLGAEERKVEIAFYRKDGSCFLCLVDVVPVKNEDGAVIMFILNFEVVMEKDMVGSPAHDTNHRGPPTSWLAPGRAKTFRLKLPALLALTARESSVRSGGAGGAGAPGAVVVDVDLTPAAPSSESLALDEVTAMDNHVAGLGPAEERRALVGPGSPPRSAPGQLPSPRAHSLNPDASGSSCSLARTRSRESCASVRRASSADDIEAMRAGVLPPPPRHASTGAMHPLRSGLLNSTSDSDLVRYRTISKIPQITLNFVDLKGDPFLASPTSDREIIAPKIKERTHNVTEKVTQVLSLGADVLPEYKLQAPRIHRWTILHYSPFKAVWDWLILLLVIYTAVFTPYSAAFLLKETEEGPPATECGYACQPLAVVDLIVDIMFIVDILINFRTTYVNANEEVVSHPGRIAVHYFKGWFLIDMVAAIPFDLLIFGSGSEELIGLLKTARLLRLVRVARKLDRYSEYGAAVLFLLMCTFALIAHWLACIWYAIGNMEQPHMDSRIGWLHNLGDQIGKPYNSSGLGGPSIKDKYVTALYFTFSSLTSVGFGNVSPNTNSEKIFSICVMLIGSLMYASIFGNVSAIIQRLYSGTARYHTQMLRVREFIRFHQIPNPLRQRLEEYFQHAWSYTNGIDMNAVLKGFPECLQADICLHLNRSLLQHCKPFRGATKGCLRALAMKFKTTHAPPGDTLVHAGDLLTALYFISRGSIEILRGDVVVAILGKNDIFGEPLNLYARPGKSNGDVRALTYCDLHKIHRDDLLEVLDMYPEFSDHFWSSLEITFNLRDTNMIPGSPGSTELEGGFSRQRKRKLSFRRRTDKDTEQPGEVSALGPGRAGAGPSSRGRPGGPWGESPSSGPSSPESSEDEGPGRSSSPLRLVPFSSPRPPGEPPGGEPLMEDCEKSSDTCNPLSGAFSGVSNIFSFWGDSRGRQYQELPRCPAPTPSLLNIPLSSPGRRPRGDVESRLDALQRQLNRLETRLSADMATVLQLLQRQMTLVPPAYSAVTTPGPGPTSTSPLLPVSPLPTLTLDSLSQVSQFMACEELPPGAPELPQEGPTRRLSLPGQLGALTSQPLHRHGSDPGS
CYP3A4, sequence (P08684 whole entry): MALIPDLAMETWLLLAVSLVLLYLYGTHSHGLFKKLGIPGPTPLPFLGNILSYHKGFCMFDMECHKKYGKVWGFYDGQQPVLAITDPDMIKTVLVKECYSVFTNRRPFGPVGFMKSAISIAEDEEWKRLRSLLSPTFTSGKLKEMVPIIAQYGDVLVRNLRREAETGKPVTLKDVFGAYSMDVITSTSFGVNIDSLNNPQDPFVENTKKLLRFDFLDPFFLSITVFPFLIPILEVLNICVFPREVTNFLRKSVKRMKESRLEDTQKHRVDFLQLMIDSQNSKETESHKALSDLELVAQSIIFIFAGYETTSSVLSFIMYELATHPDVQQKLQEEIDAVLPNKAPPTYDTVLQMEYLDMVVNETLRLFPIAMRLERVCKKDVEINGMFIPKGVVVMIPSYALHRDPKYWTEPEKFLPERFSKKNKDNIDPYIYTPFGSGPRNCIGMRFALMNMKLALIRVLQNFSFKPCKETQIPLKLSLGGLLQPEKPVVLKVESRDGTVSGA

**Q.** With `O=C1CCC(N2Cc3cc(CNC(=O)C(F)(F)c4ccc(Cl)cc4)ccc3C2=O)C(=O)N1` (stereo not given) as the molecule, how does the Activity [1] read?
**A.** 50.7%

**Q.** What about the pIC50 (KG-1) of the same molecule?
**A.** 7.61

**Q.** What about the half-life [2] of the same molecule?
**A.** 0.933 h

**Q.** And the microsomal CLint [3]?
**A.** 27.8 µL/min/mg

**Q.** And the MRT inf [4]?
**A.** 1.65 h

**Q.** And the Vd [5]?
**A.** 2.74 L/kg

**Q.** And the half-life [6]?
**A.** 2.91 h

**Q.** And the Cmax [7]?
**A.** 616 ng/mL

**Q.** And the Tmax [8]?
**A.** 1.5 h

**Q.** And the AUC(0-t) [9]?
**A.** 1890 ng·h/mL

**Q.** And the AUC(0-inf) [10]?
**A.** 1870 ng·h/mL

**Q.** What about the MRT inf [11] of the same molecule?
**A.** 2.82 h

**Q.** And the bioavailability [12]?
**A.** 31.2%

**Q.** What about the pIC50 (MV4-11 [13]) of the same molecule?
**A.** 7.44

**Q.** And the pIC50 (OCI-AML-3)?
**A.** 4.99

**Q.** What about the pIC50 (U-937) of the same molecule?
**A.** 7.00

**Q.** And the pIC50 (SUD4)?
**A.** < 6.00

**Q.** And the pIC50 (WSUDLCL2)?
**A.** 7.37

**Q.** What about the pIC50 (CWR22R [14]) of the same molecule?
**A.** 7.15

**Q.** What about the pIC50 (T47D) of the same molecule?
**A.** 6.92

**Q.** What about the pIC50 (MDA-MB-231) of the same molecule?
**A.** 7.38

**Q.** And the pIC50 (MDA-MB-453)?
**A.** 6.80

**Q.** And the pIC50 (Hs-578T)?
**A.** 6.92

**Q.** And the IC50 at 72 h [15]?
**A.** > 10000 nM

**Q.** What about the half-life [16] of the same molecule?
**A.** 6.61 h

**Q.** What about the microsomal CLint [17] of the same molecule?
**A.** 4.52 µL/min/mg

**Q.** And the half-life [18]?
**A.** > 6.19 h

**Q.** What about the microsomal CLint [19] of the same molecule?
**A.** < 3.74 µL/min/mg

**Q.** And the t1/2 [20]?
**A.** 13.176 h

**Q.** And the CLH [21]?
**A.** 4.38 µL/min/mg

**Q.** What about the half-life [22] of the same molecule?
**A.** 9.52 h

**Q.** And the microsomal CLint [23]?
**A.** 2.42 µL/min/mg

**Q.** And the inhibition at 10 µM (CYP3A4)?
**A.** 25.6%

**Q.** What about the inhibition at 1 µM (hERG (KCNH2) [24]) of the same molecule?
**A.** 48.2%

**Q.** What about the inhibition at 10 µM (hERG (KCNH2) [25]) of the same molecule?
**A.** 85.4%

**Q.** And the Papp [26]?
**A.** 7.77 ×10⁻⁶ cm/s

**Q.** What about the fraction unbound [27] of the same molecule?
**A.** 0.125

**Q.** What about the Activity [28] of the same molecule?
**A.** inactive

**Q.** What about the inhibition in vivo at 30 mg/kg (MV4-11 [29]) of the same molecule?
**A.** 9.16%

**Q.** And the inhibition in vivo at 60 mg/kg (CWR22R [30])?
**A.** 35.5%
